{"source": "patent US20210395689A1", "about": "“METHOD FOR PRODUCING INSULIN-PRODUCING CELLS” (KATAOKA CORPORATION, priority 2018, published 2021)", "key": {"pancreatic α-cells": {"test_system": "pancreatic α-cells", "details": "reported in Non-Patent Document 7; cited from earlier work"}, "human fibroblasts": {"test_system": "human fibroblasts", "assay": "Direct induction from human fibroblasts into insulin-producing cells, amount of insulin secreted", "type": "cell-based", "details": "culturing for 14 days in differentiation induction medium; 3 μM CHIR99021, 7.5 μM forskolin, 1.5 μM BRD7389, 5 μM LY294002; BI-D1870 5 μM or 10 μM; FIGS. 1 to 4", "from_the_text": "The insulin-producing cell produced by the present invention process can be detected, identified, and isolated using, for example, a morphological change of a cell, a characteristic property of an insulin-producing cell, or a specific marker (e.g., an anti-insulin antibody). Moreover, the secretory capacity of the obtained insulin-producing cell can also be evaluated by quantifying the amount of secreted insulin using sandwich ELISA.\nThe human fibroblasts used as the material were purchased from DS Pharma Biomedical Co., Ltd. The fibroblasts are derived from human skin.\nHuman fibroblasts were seeded in 35-mm dishes coated with gelatin (Cat #: 190-15805, manufactured by Wako Pure Chemical Industries, Ltd.) at 5×10^4 cells/dish, and cultured in DMEM medium (manufactured by Gibco) supplemented with 10% fetal bovine serum (FBS), 100 U/mL penicillin, and 100 μg/mL streptomycin until confluent under conditions of 37° C. and 5% CO2. Note that DMEM refers to Dulbecco's Modified Eagle's Medium.\nThe medium of dishes of the human fibroblasts described above was replaced with the differentiation induction medium described below. […]"}}}
{"compound": "O=C1c2ccccc2-c2c(NCCc3ccccc3)c(=O)[nH]c3cccc1c23", "note": "[BRD7389]", "values": [{"measurement": "expression of insulin genes in pancreatic α-cells", "setting": "pancreatic α-cells", "result": "capacity of activating the expression of insulin genes"}, {"measurement": "insulin secretion by insulin-producing cells directly differentiated from human fibroblasts", "setting": "human fibroblasts", "result": "a considerable amount of insulin secretion was observed"}]}
